The values below come from patent publication US6372740B1, “2-aryl-8-oxodihydropurine derivative, process for the producing the same, medicinal compositions containing the same, and intermediates thereof” (Dainippon Pharmaceutical Co., Ltd., priority 1997, dated 2002).

Data set [1] deals with mice (stay in light compartment). Kind of data set: Light and dark box test (anti-anxiety effect). It is filed as in vivo. The following applies: Mus musculus, po, 0.5 h, male Std-ddY mice, 30 minutes before test, Dunnett test 5%, read-out: Anti-anxiety effect MED (minimum effective dose). The text has this: Experiment 2: Light and Dark Box Test (Anti-anxiety Effect)
Anti-anxiety effect of test compounds was examined in a box with light and dark compartments according to the method of Crawley, J. and Goodwin, F. K. [cf., Pharmacol. Biochem. Behav., 13, 167-170 (1980)] with slight modification.
Light and dark box test is a useful, simple and handy method for behaviorally and pharmacologically examining anti-anxiety effect of the drugs, by utilizing the habit of rodents such as mice and rats, etc. which prefer to stay in a dark place, and regarding as positive drug effect the increase of the relative stay of the animals in the light compartment which is an uncomfortable place for the animals. A number of drugs such as cholecystokinin B type receptor antagonists and benzodiazepine drugs, show positive effect in this test.
Light and dark box test was carried out using the test box device (35×17×15 cm) which comprises: a light compartment (20×17×15 cm) consisting of transparent acrylic plates and highly illuminated by an incandescent lamp (1,700 lux); a dark compartment (15×17×15 cm) being made of black acrylic plates connected to the light compartment; and at the boundary of compartments, an opening (4.4×5.0 cm) in which mice can go through freely between two compartments.
Male mice of Std-ddY strain weighing 25-30 g were used in a group of 10. Each trial was started by placing a mouse in the center of the light compartment 30 minutes after oral administration of a test compound, and the time spent by the mouse in the light compartment during a 5 minute observation period was measured, and the rate of the stay of mice in the light compartment to the whole time spent in the experiment was calculated (rate of light compartment stay, %).
The anti-anxiety effect of the test compound was represented by the minimum effective dose (MED) at which the increasing rate of the relative stay in the light compartment was regarded as statistically significant (Dunnett test, significance level: 5%). 4.

Data set [2] concerns the target T1, BZω3 receptor (Rattus norvegicus, UniProt P16257).
T1 construct: from tissue; host or cells: rat (Wistar) kidney membrane fraction
The data set can be described thus: BZω3 (peripheral) benzodiazepine receptor binding assay, [3H] 4'-chlorodiazepam (Ro 5-4864). The following applies: rat kidney membrane, [3H] Ro 5-4864 0.5 nM, 150 minutes at 0° C.; read-out: ω3 IC50. As to the method: Experiment 1: Central (ω1,ω2) and Peripheral (ω3) Benzodiazepine Receptor Binding Assays
BZω1 and BZω2 receptor binding assays and the preparation of receptor membrane fractions therefor were carried out according to the method of Stephens, D. N. et al. [cf., J. Pharmacol. Exp. Ther., 253, 334-343 (1990)], and BZω3 receptor binding assay and the preparation of receptor membrane fraction therefor were done according to the method of Schoemaker, H. [cf, J. Pharmacol. Exp. Ther., 225, 61-69 (1983)] each with slight modification.
Receptor membrane fractions for ω1, ω2 and ω3 were prepared from the cerebellum (ω1), spinal cord (ω2) or kidney (ω3) in 7-8 week old male rats of Wistar strain, respectively, by the procedure described below.
After the cerebellum or spinal cord was homogenized with 20 volumes of ice-cold 50 mM Tris-citrate buffer (pH 7.1), the homogenate was centrifuged for 15 minutes at 40,000 g. The pellet obtained was washed 4 times by the same procedure, and frozen and stored for 24 hours at −60° C. The resulting pellet, after being thawed, washed with the buffer and centrifuged, was suspended in the buffer I for the binding assay (50 mM Tris-HCl buffer containing 120 mM NaCl, 5 mM KCl, 2 mM CaCl2 and 1 mM MgCl2; pH 7.4) and the suspension thus obtained (containing 1 g wet tissue/40 ml) was used for the BZω1 and BZω2receptor binding assays. On the other hand, the kidney was homogenized with 20 volumes of the ice-cold buffer II for the binding assay (50 mM Na-K phosphate buffer containing 100 mM NaCl; pH 7.4), and the mixture was filtered through 4 sheets of gauze, and centrifuged for 20 minutes at 40,000 g. The pellet obtained was suspended in the buffer II and the suspension (containing 1 g wet tissue/100 ml) was used for the binding assay as BZω3 receptor membrane source.
[^3H] Flumazenil (Ro 15-1788) (final concentration: 0.3 nM for ω1, and 1 nM for ω2) and flunitrazepam (final concentration: 10 μM) were used for the BZω1 or BZω2 receptor binding assays as the isotope-labeled and unlabeled ligands, respectively. For the BZω3 receptor binding assay, [^3H] 4′-chlorodiazepam (7-chloro-1,3-dihydro-1-methyl-5-(4-chlorophenyl)-2H-1,4-diazepin-2-one) (Ro 5-4864) (final concentration: 0.5 nM) and diazepam (final concentration: 100 μM) were used as the isotope-labeled and unlabeled ligands, respectively. Incubation was performed for 30 minutes at 37° C. in the BZω1 or BZω2 receptor binding assays, and for 150 minutes at 0° C. in the BZω3 receptor binding assay. The BZω1 or BZω2 receptor binding assays were carried out in the presence of bicuculline (final concentration: 100 μM).
The binding assay was performed by the following procedure. After adding each test compound at certain known concentrations, a [^3H] ligand, and the buffer I or II to each test tube, each assay was started by addition of membrane preparation (total volume of 1 ml). After incubation, the assay was terminated by filtration with suction through a Whatman GF/B glass fiber filter using a cell harvester (Brandel, USA). The filters were rapidly washed 3 times with 5 ml of ice-cold 50 mM Tris-HCl buffer (pH 7.7) for ω1 and ω2, or the buffer II for ω3, and transferred to scintillation vials containing 10 ml liquid scintillation cocktail (ACS-II, Amersham, USA). After being allowed to stand for a specific period, retained radioactivity was counted by a liquid scintillation spectrometer. Specific binding of [^3H] ligands was calculated as the difference between amounts of radioactivity bound in the presence and absence of excess unlabeled ligands. The concentration of the test compounds causing 50% inhibition of specific binding of the [3H] ligand (IC50) was determined by probit analysis.

In the case of `CN(C(=O)Cn1c(=O)n(C)c2nc(-c3ccccc3)ncc21)c1ccccc1` [Example 2, 8,9-dihydro-9-methyl-N-methyl-8-oxo-2-phenyl-N-phenyl-7H-purin-7-acetamide], the melting point was 147 to 148 °C. Further, the minimal effective dose in data set [1] was in the range of 1 to 3 µg/kg. Further, the IC50 in data set [2] was 1.2 nM.
Compound `CN(C(=O)Cn1c(=O)n(C)c2nc(-c3ccc(F)cc3)ncc21)c1ccccc1` [Example 5, 8,9-dihydro-2-(4-fluorophenyl)-9-methyl-N-methyl-8-oxo-N-phenyl-7H-purin-7-acetamide] showed a melting point of 169 to 170 °C. Further, the minimal effective dose in data set [1] is 1 to 3 µg/kg. Also, in data set [2], the IC50 is 1.3 nM.
In turn, `CCN(C(=O)Cn1c(=O)n(C)c2nc(-c3cccs3)ncc21)c1ccccc1` [Example 39] displayed a melting point of 236 to 238 °C. For the same compound, the IC50 in data set [2] stood at 1.3 nM.
Compound `CCN(C(=O)Cn1c(=O)n(C)c2nc(-c3ccsc3)ncc21)c1ccccc1` [Example 40] came in with a melting point of 226 to 228 °C. Moreover, in data set [2], the IC50 is 1.6 nM.
Taken in the same sequence, the figures for `CN(Cc1ccccc1)C(=O)Cn1c(=O)n(C)c2nc(-c3ccc(Cl)cc3)ncc21` [Example 49] were 210 to 211 °C and 1.4 nM.
The compound `COc1ccc(-c2ncc3c(n2)n(C)c(=O)n3CC(=O)N(C)Cc2ccccc2)cc1` [Example 51] registered a melting point of 205 to 206 °C. For the same compound, the IC50 in data set [2] came to 1.2 nM.
`CCN(Cc1ccccc1)C(=O)Cn1c(=O)n(C)c2nc(-c3ccccc3)ncc21` [Example 54] yielded a melting point of 112 to 115 °C. Besides, the IC50 in data set [2] came to 0.83 nM.
`CCN(Cc1ccccc1)C(=O)Cn1c(=O)n(C)c2nc(-c3ccc(F)cc3)ncc21` [Example 56] showed a melting point of 155 to 157 °C. In addition, the IC50 in data set [2] was determined as 1.4 nM.
Compound `CN(Cc1ccccc1F)C(=O)Cn1c(=O)n(C)c2nc(-c3ccccc3)ncc21` [Example 71] showed a melting point of 198 to 199 °C. For the same compound, the IC50 in data set [2] was 0.43 nM.
As for `COc1ccc(CN(C)C(=O)Cn2c(=O)n(C)c3nc(-c4ccccc4)ncc32)cc1` [Example 73], the melting point lay within 174 to 176 °C. Besides, the IC50 in data set [2] is 1.7 nM.
As to `CCN(Cc1ccc(F)cc1)C(=O)Cn1c(=O)n(C)c2nc(-c3ccccc3)ncc21` [Example 74], the melting point is 166 to 167 °C. Further, the IC50 in data set [2] is 0.99 nM.
Taken in the same sequence, the figures for `CCN(Cc1cccc(F)c1)C(=O)Cn1c(=O)n(C)c2nc(-c3ccccc3)ncc21` [Example 75] were 144 to 145 °C and 1.3 nM.
For `CCCN(CCC)C(=O)Cn1c(=O)[nH]c2cnc(-c3ccc(F)cc3)nc21` [Example 81], in that order: 213 to 215 °C and 5 nM.
Compound `CCCN(CCC)C(=O)Cn1c(=O)[nH]c2cnc(-c3ccc([N+](=O)[O-])cc3)nc21` [Example 83] displayed a melting point of 256 to 258 °C. The IC50 in data set [2] was determined as 1.3 nM.
Take `CCN(Cc1ccccc1)C(=O)Cn1c(=O)[nH]c2cnc(-c3ccc(OC)cc3)nc21` [Example 94]: the melting point lay within 216 to 218 °C. Besides, the IC50 in data set [2] was 2.7 nM.
Taken in the same sequence, the figures for `CN(C(=O)Cn1c(=O)[nH]c2cnc(-c3ccccc3)nc21)c1cccc(Cl)c1` [Example 99] were 234 to 236 °C and 1.4 nM.
As for `COc1ccc(N(C)C(=O)Cn2c(=O)[nH]c3cnc(-c4ccccc4)nc32)cc1` [Example 101], the melting point lay in the range of 238 to 240 °C. Besides, the IC50 in data set [2] was determined as 1.3 nM.
Taken in the same sequence, the figures for `CCN(C(=O)Cn1c(=O)[nH]c2cnc(-c3ccccc3)nc21)c1ccccc1` [Example 103] were 237 to 238 °C and 0.8 nM.
In the case of `CCCN(CCC)C(=O)Cn1c(=O)n(C)c2cnc(-c3ccc(F)cc3)nc21` [Example 113], the melting point was 140 to 141 °C. Besides, in data set [2], the IC50 is 0.97 nM.
`CCCN(CCC)C(=O)Cn1c(=O)n(C)c2cnc(-c3ccc(OC)cc3)nc21` [Example 114] registered a melting point of 157 to 158 °C. Also, the IC50 in data set [2] stood at 0.97 nM.
Taken in the same sequence, the figures for `CN(Cc1ccccc1)C(=O)Cn1c(=O)n(C)c2cnc(-c3ccccc3)nc21` [Example 136, N-benzyl-7,8-dihydro-N-methyl-7-methyl-8-oxo-2-phenyl-9H-purin-9-acetamide] were 169 to 170 °C and 0.66 nM.
For `CCn1c(=O)n(CC(=O)N(C)Cc2ccccc2)c2nc(-c3ccccc3)ncc21` [Example 140], in that order: 147 to 149 °C and 0.87 nM.
For the compound `CCN(Cc1ccccc1)C(=O)Cn1c(=O)n(CC)c2cnc(-c3ccccc3)nc21` [Example 150], the melting point was 134 to 136 °C. Also, in data set [2], the 50% inhibitory concentration (IC50) stood at 0.81 nM.
`CCN(Cc1ccccc1)C(=O)Cn1c(=O)n(CC)c2cnc(-c3ccc(Cl)cc3)nc21` [Example 151] displayed a melting point of 157 to 158 °C. The IC50 in data set [2] worked out at 2.3 nM.
Taken in the same sequence, the figures for `CN(C(=O)Cn1c(=O)n(C)c2cnc(-c3ccccc3)nc21)c1ccccc1` [Example 156] were 202 to 203 °C and 0.67 nM.
For `CCn1c(=O)n(CC(=O)N(C)c2cccc(Cl)c2)c2nc(-c3ccccc3)ncc21` [Example 161], in that order: 205 to 207 °C and 1.1 nM.
For `CCn1c(=O)n(CC(=O)N(C)c2ccc(Cl)cc2)c2nc(-c3ccccc3)ncc21` [Example 162], in that order: 173 to 175 °C and 1.1 nM.
Take `CCN(C(=O)Cn1c(=O)n(C)c2cnc(-c3ccccc3)nc21)c1ccccc1` [Example 166]: the melting point was 180 to 181 °C. Further, the IC50 in data set [2] was determined as 1.2 nM.
Taken in the same sequence, the figures for `CCCN(C(=O)Cn1c(=O)n(CC)c2cnc(-c3ccccc3)nc21)c1ccccc1` [Example 170] were 151 to 152 °C and 1.8 nM.
`CCn1c(=O)n(CC(=O)N(C)c2ccccc2)c2nc(-c3cccnc3)ncc21` [Example 172] registered a melting point of 199 to 200 °C. In addition, the IC50 in data set [2] is 3.5 nM.

As usually defined, the IC50 is the midpoint of a concentration-inhibition curve. The term melting point denotes the temperature of the solid-liquid transition.
